Experimental data reported in ChEMBL document CHEMBL3769333, “A mode of action study of cationic anthraquinone analogs: a new class of highly potent anticancer agents” (Medchemcomm, 2015).
Activity calls are given as the source filed them. The calls are words filed in the database; no cut-off is given here.

Experiments:
[1] = Induction of ROS level in anhydrous acetonitrile electrolyte assessed as first half wave redox potential at 2 mM using Ag/AgCl reference electrode by cyclic voltammetry; type: physicochemical; settings: 2000 µM
[2] = Induction of ROS level in anhydrous acetonitrile electrolyte assessed as second half wave redox potential at 2 mM using Ag/AgCl reference electrode by cyclic voltammetry; type: physicochemical; settings: 2000 µM
[3] = Cytotoxicity against human NCI60 cells assessed as cell growth relative to control; type: functional; set-up: concentration or dose not given beside the values
Escherichia coli [4] = test: Induction of Escherichia coli supercoiled pUC19 DNA cleavage at 240 uM after 24 hrs by agarose gel electrophoresis
A549 [5] = test: Growth inhibition of human A549 cells assessed as reduction in cell viability after 48 hrs by MTT assay; type: functional, cell-based; settings: A549, 48 h
[6] = Growth inhibition of human […] cells assessed as reduction in cell viability after 48 hrs by MTT assay; type: cell-based
A549 [7] = test: Selectivity index, ratio of IC50 for human […] cells to IC50 for human A549 cells; type: functional
A549 [8] = test: Induction of apoptosis in human A549 cells assessed as increase in ROS level at 10 uM after 4 hrs by DCFH-DA staining based flow cytometry relative to control; type: functional
A549 [9] = test: Cell cycle arrest in human A549 cells assessed as accumulation at sub G1 phase at 0.01 to 100 uM after 24 hrs by propidium idoide staining based flow cytometry; type: functional
A549 [10] = test: Cell cycle arrest in human A549 cells assessed as accumulation at G1 phase at 0.01 to 100 uM after 24 hrs by propidium idoide staining based flow cytometry; type: functional
A549 [11] = test: Cell cycle arrest in human A549 cells assessed as accumulation at S phase at 0.01 to 100 uM after 24 hrs by propidium idoide staining based flow cytometry; type: functional
A549 [12] = test: Cell cycle arrest in human A549 cells assessed as accumulation at G2 phase at 0.01 to 100 uM after 24 hrs by propidium idoide staining based flow cytometry; type: functional
A549 [13] = test: Induction of apoptosis in human A549 cells assessed as apoptotic cells at 0.01 uM after 24 hrs by Annexin V/propidium iodide staining based flow cytometry (reference value: 7.7%); type: functional
A549 [14] = test: Induction of apoptosis in human A549 cells assessed as apoptotic cells at 0.1 uM after 24 hrs by Annexin V/propidium iodide staining based flow cytometry (reference value: 7.7%); type: functional
A549 [15] = test: Induction of apoptosis in human A549 cells assessed as apoptotic cells at 1 uM after 24 hrs by Annexin V/propidium iodide staining based flow cytometry (reference value: 7.7%); type: functional
A549 [16] = test: Induction of apoptosis in human A549 cells assessed as apoptotic cells at 10 uM after 24 hrs by Annexin V/propidium iodide staining based flow cytometry (reference value: 7.7%); type: functional
A549 [17] = test: Induction of apoptosis in human A549 cells assessed as apoptotic cells at 100 uM after 24 hrs by Annexin V/propidium iodide staining based flow cytometry (reference value: 7.7%); type: functional
A549 [18] = test: Induction of apoptosis in human A549 cells assessed as cell shrinkage at 1 to 100 uM after 24 hrs by microscopy; type: functional, cell-based
A549 [19] = test: Induction of apoptosis in human A549 cells assessed as nuclear condensation at 100 uM after 24 hrs by microscopy; type: functional, cell-based
A549 [20] = test: Induction of apoptosis in human A549 cells assessed as mitochondrial membrane damage at 100 uM after 24 hrs by microscopy; type: functional, cell-based
A549 [21] = test: Induction of apoptosis in human A549 cells assessed as increase in ROS level at 100 uM after 4 hrs by DCFH-DA staining based flow cytometry relative to control; type: functional
A549 [22] = test: Induction of apoptosis in human A549 cells assessed as increase in ROS level at 10 to 100 nM after 4 hrs by DCFH-DA staining based flow cytometry; type: functional, cell-based
A549 [23] = test: Reduction of glutathione level in human A549 cells at 0.1 uM after 48 hrs by fluorometric assay; type: functional; set-up: scale not given: the % may be the effect or the level left
A549 [24] = test: Reduction of glutathione level in human A549 cells at 1 uM after 48 hrs by fluorometric assay; type: functional; set-up: scale not given: the % may be the effect or the level left
A549 [25] = test: Reduction of glutathione level in human A549 cells at 10 uM after 48 hrs by fluorometric assay; type: functional; set-up: scale not given: the % may be the effect or the level left
A549 [26] = test: Reduction of glutathione level in human A549 cells at 100 uM after 48 hrs by fluorometric assay; type: functional; set-up: scale not given: the % may be the effect or the level left
A549 [27] = test: Reduction of glutathione in human A549 cells assessed as glutathione level after 48 hrs by fluorometric assay; type: functional, cell-based
A549 [28] = test: Induction of alteration in mitochondrial membrane potential in human A549 cells after 24 hrs by rhodamine 123 staining based flow cytometry; type: functional, cell-based
A549 [29] = test: Induction of mitochondrial membrane potential loss in human A549 cells at 10 to 100 nM after 24 hrs by rhodamine 123 staining based flow cytometry (reference value: 1.7%); type: functional
A549 [30] = test: Induction of mitochondrial membrane potential loss in human A549 cells at 1 uM after 24 hrs by rhodamine 123 staining based flow cytometry (reference value: 1.7%); type: functional
A549 [31] = test: Induction of mitochondrial membrane potential loss in human A549 cells at 10 uM after 24 hrs by rhodamine 123 staining based flow cytometry (reference value: 1.7%); type: functional
A549 [32] = test: Induction of mitochondrial membrane potential loss in human A549 cells at 100 uM after 24 hrs by rhodamine 123 staining based flow cytometry (reference value: 1.7%); type: functional
[33] = Induction of ROS level assessed as half reduction potential using saturated calomel electrode by cyclic voltammetry; type: physicochemical
[34] = Induction of ROS level assessed as half reduction potential using Ag/AgCl reference electrode by cyclic voltammetry; type: physicochemical
Escherichia coli [35] = test: Induction of Escherichia coli supercoiled pUC19 DNA cleavage assessed as appearance of nicked supercoiled DNA after 24 hrs by agarose gel electrophoresis in absence of transition metal complex, light irradiation or oxidative reagent

COc1ccc(-n2n[n+](C)c3c2C(=O)c2ccccc2C3=O)cc1OC.O=S(=O)([O-])C(F)(F)F
Activity [1]: -182 mV | Activity [2]: -885.5 mV | Activity [3]: -31.51% | Activity (Escherichia coli [4]): Active

COc1ccc(-n2n[n+](C)c3c2C(=O)c2ccccc2C3=O)cc1.O=S(=O)([O-])C(F)(F)F
IC50 (A549 [5]): 4.2 µM | IC50 [6]: 35 µM | Ratio IC50 (A549 [7]): 8 | Activity (A549 [8]): 133% | Activity (A549 [9]): inactive | Activity (A549 [10]): inactive | Activity (A549 [11]): inactive | Activity (A549 [12]): inactive | Activity (A549 [13]): 8.74% | Activity (A549 [14]): 11.06% | Activity (A549 [15]): 11.07% | Activity (A549 [16]): 35.44% | Activity (A549 [17]): 61.28% | Activity (A549 [18]): Active | Activity (A549 [19]): Active | Activity (A549 [20]): Active | Activity (A549 [21]): 226% | Activity (A549 [22]): inactive | Activity (A549 [23]): 99.35% | Activity (A549 [24]): 88.76% | Activity (A549 [25]): 23.87% | Activity (A549 [26]): 12.13% | Activity (A549 [27]): Dose-dependent effect | Activity (A549 [28]): Dose-dependent effect | Activity (A549 [29]): 2.55% | Activity (A549 [30]): 4.1% | Activity (A549 [31]): 51.4% | Activity (A549 [32]): 88.05% | Activity [1]: -182.5 mV | Activity [2]: -885 mV | Activity [3]: -24.7% | Activity (Escherichia coli [4]): Active

COc1cc(-n2n[n+](C)c3c2C(=O)c2ccccc2C3=O)cc(OC)c1OC.O=S(=O)([O-])C(F)(F)F
Activity [1]: -168 mV | Activity [2]: -867 mV | Activity [3]: 23.23% | Activity (Escherichia coli [4]): Active

CCCCCCCCn1n[n+](C)c2c1C(=O)c1ccccc1C2=O.O=S(=O)([O-])C(F)(F)F
IC50 (A549 [5]): 83.3 µM | Activity (A549 [8]): 108% | Activity (A549 [21]): 177% | Activity (A549 [31]): 25% | Activity (A549 [32]): 50%

Cc1ccc(-n2n[n+](C)c3c2C(=O)c2ccccc2C3=O)cc1.O=S(=O)([O-])C(F)(F)F
Activity [1]: -176 mV | Activity [2]: -881.5 mV | Activity [3]: 11.53% | Activity (Escherichia coli [4]): Active

COC1=C(OC)C(=O)C(C/C=C(\C)CC/C=C(\C)CC/C=C(\C)CC/C=C(\C)CC/C=C(\C)CC/C=C(\C)CC/C=C(\C)CC/C=C(\C)CC/C=C(\C)CCC=C(C)C)=C(C)C1=O [UBIDECARENONE]
Activity [33]: -602 mV | Activity [34]: -567 mV

COc1cc(OC)cc(-n2n[n+](C)c3c2C(=O)c2ccccc2C3=O)c1.O=S(=O)([O-])C(F)(F)F
Activity [1]: -182.5 mV | Activity [2]: -762 mV | Activity [3]: -27.06% | Activity (Escherichia coli [4]): Active

C[n+]1nn(-c2ccc(C(F)(F)F)cc2)c2c1C(=O)c1ccccc1C2=O.O=S(=O)([O-])C(F)(F)F
Activity [1]: -130.5 mV | Activity [2]: -823.5 mV | Activity [3]: 58.69% | Activity (Escherichia coli [4]): Active

C[n+]1nn(-c2ccccc2)c2c1C(=O)c1ccccc1C2=O.O=S(=O)([O-])C(F)(F)F
Activity [1]: -163.5 mV | Activity [2]: -866.5 mV | Activity [3]: -10.18% | Activity (Escherichia coli [35]): Dose-dependent effect

C[n+]1nn(-c2ccc(F)cc2)c2c1C(=O)c1ccccc1C2=O.O=S(=O)([O-])C(F)(F)F
Activity [1]: -156.5 mV | Activity [2]: -886 mV | Activity [3]: 43.38% | Activity (Escherichia coli [4]): Active

COc1cc([C@@H]2c3cc4c(cc3[C@@H](O[C@@H]3O[C@@H]5CO[C@@H](C)O[C@H]5[C@H](O)[C@H]3O)[C@H]3COC(=O)[C@H]23)OCO4)cc(OC)c1O [ETOPOSIDE]
IC50 (A549 [5]): 3.9 µM

C[n+]1nn(-c2ccc(Cl)cc2)c2c1C(=O)c1ccccc1C2=O.O=S(=O)([O-])C(F)(F)F
Activity [1]: -148.5 mV | Activity [2]: -842.5 mV | Activity [3]: 101.7% | Activity (Escherichia coli [4]): Active
